Measurements: US20250346601A1, “HETEROCYCLIC COMPOUNDS FOR THE PREVENTION AND THERAPY OF CIRCADIAN RHYTHM DISORDERS” (UNIVERZITA PALACKEHO V OLOMOUCI, priority 2022, published 2025)

Assays:
[1] = system: NIH3T3 line transfected with the Per2-Luc reporter; assay: Period of the circadian rhythm in NIH3T3 fibroblasts with Per2-Luc reporter (luminescence, cosinor analysis); assay type: cell-based, mouse; settings: NIH3T3, DMSO control = 1.00
Procedure: NIH3T3 mouse embryonic fibroblasts were grown in standard DMEM with 10% fetal bovine serum. NIH3T3 cells were transfected with 1 μg of Per2-Luc reporter using GeneJuice and selected under hygromycin. The cell line was clonally expanded and a single monoclonal cell line was used for further experiments. Cells were cultured in a 96-well plate in growth medium to 90+% confluence. Test compound or vehicle (DMSO) was applied to recording medium with 100 U/ml penicillin, 100 μg/ml streptomycin, 1x GlutaMAX, 10% fetal calf serum and 0.1 mM Luciferin-EF (Promega Madison, WI, USA). Luminescence was recorded every hour for the next 144 hours. Circadian rhythm analysis was performed using cosinor analysis. Period length was expressed relative to the period of cells affected only by DMSO vehicle (their period length is therefore 1.00).

[2] = system: U2OS line transduced with the Bmal 1-Luc reporter; assay: Period of the circadian rhythm in U2OS cells with Bmal1-Luc reporter (luminescence, cosinor analysis); assay type: cell-based, Human; settings: U2OS, DMSO control = 1.00
Procedure: Human osteosarcoma U2OS cells were grown in standard DMEM medium with 10% fetal bovine serum. U2OS cells were transduced with lentiviral particles containing a Bmall-Luc fusion reporter and selected under Blasticidin. The cell line was clonally expanded and a single monoclonal cell line was used for further experiments. Cells were cultured in a 384-well plate in growth medium to 90+% confluence. Test compound or vehicle (DMSO) was applied to recording medium with 100 U/ml penicillin, 100 ug/ml streptomycin, 1x GlutaMAX, 10% fetal bovine serum, and 0.1 mM Luciferin-EF. Luminescence was recorded every hour for the next 144 hours. Circadian rhythm analysis was performed using cosinor analysis.
The length of the period was expressed relative to the period of cells affected only by DMSO vehicle (their period is therefore 1.00). […] The overall effect on circadian oscillations unequivocally proves that the compounds of formula I can be also used to temporally modulate the concentration and activity of not only BMAL1, but also other components of the oscillator including the critical components PER2, CRY and CLOCK in time, as these are an essential part of the mechanism generating the rhythmic expression of the luminescent reporter used. The concentration and level of other proteins, whose rhythmic expression is controlled by an oscillator in the brain and peripheral tissues (so-called clock-controlled genes), are also necessarily affected. The influence of the compounds of formula I on the activity of oscillator components and subordinate genes also means influencing the physiological processes of the cell controlled by these genes and proteins. N^6-furfuryladenine was used as a reference compound. […] The ability to shift the phase of the circadian cycle can be seen in FIG. 2.

SMILES | Period length ± standard error of the mean (expressed relative to the control) at the indicated concentration ([1]; 50 μM) | Period length ± standard error of the mean (expressed relative to the control) at the indicated concentration ([1]; 10 μM) | Period length ± standard error of the mean (expressed relative to control) at the indicated concentration ([2]; 10 μM) | Period length ± standard error of the mean (expressed relative to control) at the indicated concentration ([2]; 20 μM) | further results
CC(C)(C)OCCn1cnc2c(NCc3ccco3)ncnc21 [9-[2-(tert-butoxy)ethyl]-N-(furan-2-ylmethyl)-9H-purin-6-amine, reference compound] | 50 μM: 0.9 ± 0.06 | – | – | – | Period length ± standard error of the mean (expressed relative to control) at the indicated concentration ([2]; 50 μM): 50 μM: 1 ± 0.01
c1ccc(Cn2cnc3c(NCc4ccco4)ncnc32)cc1 [9-benzyl-N-(furan-2-ylmethyl)-9H-purin-6-amine, reference compound] | – | 10 μM: 1 ± 0.02 | 10 μM: 1 ± 0.02 | – | –
c1coc(CNc2ncnc3c2ncn3C2CCCC2)c1 [Compound 1] | 1.54 ± 0.01 | 1.17 ± 0.01 | 10 μM: 1.19 ± 0.02 | – | –
Clc1nc(NCc2ccco2)c2ncn(C3CCCC3)c2n1 [Compound 6] | – | 10 μM: 1.27 ± 0.01 | – | – | Period length ± standard error of the mean (expressed relative to control) at the indicated concentration ([2]; 5 μM): 5 μM: 1.23 ± 0.03
Clc1nc(NCc2ccco2)c2ncn(C3CCOCC3)c2n1 [Compound 10] | – | 10 μM: 1.14 ± 0.01 | 10 μM: 1.09 ± 0.01 | – | –
CN(C)c1nc(NCc2ccco2)c2ncn(C3CCCC3)c2n1 [Compound 15, 9-cyclopentyl-N^6-(furan-2-ylmethyl)-N^2,N^2-dimethyl-9H-purine-2,6-diamine] | 1.56 ± 0.07 | – | – | – | Period length ± standard error of the mean (expressed relative to the control) at the indicated concentration ([1]; 0.83 μM): 1.08 ± 0.05; Period length ± standard error of the mean (expressed relative to control) at the indicated concentration ([2]; 1 μM): 1.05 ± 0.01; Period length ± standard error of the mean (expressed relative to control) at the indicated concentration ([2]; 4 μM): 1.15 ± 0.01
CN(CCN)c1nc(NCc2ccco2)c2ncn(C3CCCC3)c2n1 [Compound 16] | – | 2.02 ± 0.06 | 1.26 ± 0.07 | 1.95 ± 0.14 | Period length ± standard error of the mean (expressed relative to the control) at the indicated concentration ([1]; 0.83 μM): 1.05 ± 0.01
CN(C)CCNc1nc(NCc2ccco2)c2ncn(C3CCCC3)c2n1 [Compound 17] | 2.17 ± 0.1 | 1.71 ± 0.04 | 10 μM: 1.48 ± 0.28 | – | –
NCCNc1nc(NCc2ccco2)c2ncn(C3CCCC3)c2n1 [Compound 18] | 2.19 ± 0.35 | 1.19 ± 0 | – | – | Period length ± standard error of the mean (expressed relative to control) at the indicated concentration ([2]; 1 μM): 1 μM: 1.16 ± 0.03
c1coc(CNc2nc(N3CCOCC3)nc3c2ncn3C2CCCC2)c1 [Compound 20] | 1.55 ± 0.03 | – | – | – | Period length ± standard error of the mean (expressed relative to the control) at the indicated concentration ([1]; 0.83 μM): 1.04 ± 0.01; Period length ± standard error of the mean (expressed relative to control) at the indicated concentration ([2]; 1 μM): 1.09 ± 0.01; Period length ± standard error of the mean (expressed relative to control) at the indicated concentration ([2]; 4 μM): 1.67 ± 0.33
CNc1nc(NCc2ccco2)c2ncn(C3CCCO3)c2n1 (centres unmarked) [Compound 22] | 50 μM: 1.22 ± 0.02 | – | 10 μM: 1.06 ± 0 | – | –
CN(C)c1nc(NCc2ccco2)c2ncn(C3CCCO3)c2n1 (centres unmarked) [Compound 23] | 1.36 ± 0.04 | 1.07 ± 0.01 | 10 μM: 1.08 ± 0.01 | – | –
Cc1ccc(CNc2nc(N(C)C)nc3c2ncn3C2CCCO2)o1 (centres unmarked) [Compound 24] | 50 μM: 1.24 ± 0.07 | – | 1.03 ± 0 | 1.09 ± 0.01 | –
CNc1nc(NCc2ccco2)c2ncn(C3CCCCO3)c2n1 (centres unmarked) [Compound 33] | 50 μM: 1.18 ± 0.02 | – | – | – | Period length ± standard error of the mean (expressed relative to control) at the indicated concentration ([2]; 5 μM): 5 μM: 1.04 ± 0
CN(C)c1nc(NCc2ccco2)c2ncn(C3CCCCO3)c2n1 (centres unmarked) [Compound 34] | 50 μM: 2.3 ± 0.03 | – | 1.12 ± 0.01 | 1.25 ± 0.03 | Period length ± standard error of the mean (expressed relative to control) at the indicated concentration ([2]; 50 μM): 50 μM: 1.73 ± 0.6
CCCNc1nc(NCc2ccco2)c2ncn(C3CCCCO3)c2n1 (centres unmarked) [Compound 35] | 50 μM: 1.38 ± 0.09 | – | 10 μM: 1.05 ± 0.01 | – | –
c1coc(CNc2nc(NCc3ccco3)c3ncn(C4CCCCO4)c3n2)c1 (centres unmarked) [Compound 38] | 50 μM: 1.22 ± 0.06 | – | 10 μM: 1.1 ± 0.02 | – | –
CN(C)CCNc1nc(NCc2ccco2)c2ncn(C3CCCCO3)c2n1 (centres unmarked) [Compound 44] | 50 μM: 1.72 ± 0.04 | – | – | – | Period length ± standard error of the mean (expressed relative to control) at the indicated concentration ([2]; 1 μM): 1.05 ± 0.01; Period length ± standard error of the mean (expressed relative to control) at the indicated concentration ([2]; 5 μM): 1.28 ± 0.02
OCCNc1nc(NCc2ccco2)c2ncn(C3CCCCO3)c2n1 (centres unmarked) [Compound 45, 2-({6-[(furan-2-ylmethyl)amino]-9-(tetrahydro-2H-pyran-2-yl)-9H-purin-2-yl}amino)ethan-1-ol] | 50 μM: 1.32 ± 0.01 | – | – | 20 μM: 1.04 ± 0.01 | –
COCCCNc1nc(NCc2ccco2)c2ncn(C3CCCCO3)c2n1 (centres unmarked) [Compound 46] | 50 μM: 1.27 ± 0.04 | – | – | 20 μM: 1.05 ± 0.01 | –
CNc1nc(NCc2ccc(C)o2)c2ncn(C3CCCCO3)c2n1 (centres unmarked) [Compound 50] | 50 μM: 1.6 ± 0.02 | – | 1.11 ± 0.01 | 1.14 ± 0.02 | –
CNc1nc(NCc2ccco2)c2ncn(C3CCCCCO3)c2n1 (centres unmarked) [Compound 60] | 50 μM: 1.42 ± 0.04 | – | – | 1.15 ± 0.01 | Period length ± standard error of the mean (expressed relative to control) at the indicated concentration ([2]; 5 μM): 1.04 ± 0
CC(C)OCCn1cnc2c(NCc3ccco3)ncnc21 [N-(furan-2-ylmethyl)-9-(2-isopropoxyethyl)-9H-purin-6-amine, reference compound] | 50 μM: 0.95 ± 0.02 | – | – | – | Period length ± standard error of the mean (expressed relative to control) at the indicated concentration ([2]; 50 μM): 50 μM: 1.01 ± 0.01
